Experimental data as given in patent publication US10208033B2, “β-carboline, dihydro-β-carboline and tetrahydro-β-carboline alkaloid derivatives and preparation methods same and use in aspects of preventing and treating plant viruses, fungicides and insecticides” (NANKAI UNIVERSITY, priority 2013, dated 2019).

How the values were obtained:
[1] = tested on: tobacco mosaic virus (TMV); assay: Anti-TMV in vivo inactivation; set-up: species or system tobacco mosaic virus (host Nicotiana tabacum L.cv.Xanthi NN)
Phytophthora capsici = assay: Fungicidal (bactericidal) activity in vitro, PDA colony diameter; type: cell-based; conditions: 50 mg/kg
mosquito larvae = assay: whole plant or invertebrate
How it was run: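 Early fourth-instar Culex pipiens pallens larvae from an indoor colony, 10 per beaker, exposed to test compound at 5 ppm in water, diluted from a 1000 ppm acetone mother solution. Blank: water containing 0.5 mL test solvent.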

potato late blight = assay: microbe, parasite or virus in culture; type: cell-based
Rhizoctonia cereali = assay: Fungicidal (bactericidal) activity in vitro, PDA colony diameter; type: cell-based; conditions: 50 mg/kg
[2] = tested on: tobacco mosaic virus (TMV); assay: Anti-TMV in vivo therapeutic effect; set-up: species or system tobacco mosaic virus (host Nicotiana tabacum L.cv.Xanthi NN)
Sclerotinia scleotiorum = assay: Fungicidal (bactericidal) activity in vitro, PDA colony diameter; type: cell-based; conditions: 50 mg/kg
Fusarium fujikuroi = assay: as above; type: cell-based; conditions: 50 mg/kg
Fusarium graminearumt = assay: microbe, parasite or virus in culture; type: cell-based
[3] = tested on: tobacco mosaic virus (TMV); assay: Anti-TMV in vivo protective effect; set-up: species or system tobacco mosaic virus (host Nicotiana tabacum L.cv.Xanthi NN)
Botrytis cinerea = assay: Fungicidal (bactericidal) activity in vitro, PDA colony diameter; type: cell-based; conditions: 50 mg/kg
Cercospora arachidicola = assay: as above; type: cell-based; conditions: 50 mg/kg
armyworms = type: in vivo; conditions: concentration 600 mg/kg
[4] = tested on: tobacco mosaic virus (TMV); assay: Anti-TMV in vitro effect (half-leaf soaking); type: cell-based, tobacco mosaic virus (host Nicotiana tabacum L.cv.Xanthi NN)
[5] = tested on: armyworms, cotton bollworms and corn borers; assay: Insecticidal activity, overall statements on Table 3; type: in vivo; conditions: Table 3, 600 mg/kg
Macrophoma kawatsukai = assay: Fungicidal (bactericidal) activity in vitro, PDA colony diameter; type: cell-based; conditions: 50 mg/kg
Alternaria solani = assay: as above; type: cell-based; conditions: 50 mg/kg
cotton bollworms = assay: whole plant or invertebrate
Description: Experimental method of cotton bollworms: feed and drug mixing method: measure 3 mL of prepared solution and add it to about 27 g of newly prepared feed, thereby obtaining needed concentration through dilution by 10 times.

corn borers [6] = conditions: concentration 600 mg/kg
Bipolaria maydis = assay: organism not typed; type: cell-based
Rhizoctonia solani = assay: Fungicidal (bactericidal) activity in vitro, PDA colony diameter; type: cell-based; conditions: 50 mg/kg
cucumber fusarium wilt = assay: as above; type: cell-based; conditions: 50 mg/kg
[7] = tested on: Colletotrichum orbiculare; assay: as above; type: cell-based; conditions: 50 mg/kg
corn borers [8] = assay: whole plant or invertebrate; conditions: read-out: Corn borer Mortality (%)
[9] = tested on: tobacco mosaic virus (TMV); assay: Anti-TMV activity, overall statements on Table 1; type: in vivo, tobacco mosaic virus (host Nicotiana tabacum L.cv.Xanthi NN); conditions: 100 μg/mL versus ningnanmycin at 100 μg/mL

Cc1nccc2c1[nH]c1cc(OC(=O)C(C)(C)C)ccc12 [Ia-8, Tert-valerate (1-methylpyridino [3,4-b]indol-7)-ester]
Relative inhibition rate (%) In vivo inactivation ([1]; treatment dose 100 μg/mL): 0%
Relative inhibition rate (%) In vivo inactivation ([1]; treatment dose 500 μg/mL): 15.3%
Bactericidal activity (%) Phytophthora capsici (Phytophthora capsici): 93.9%
activity against culex pipiens larvae (in words) (mosquito larvae; at 5 mg/kg): still show high activity
Mosquito larvae Mortality (%) (mosquito larvae; concentration 5 mg/kg, 24 h): 60%
Mosquito larvae Mortality (%) (mosquito larvae; concentration 10 mg/kg, 24 h): 100%
Bactericidal activity (%) potato late blight (potato late blight; 50 mg/kg): 50.0%
Bactericidal activity (%) Rhizoctonia cereali (Rhizoctonia cereali): 90.6%
Relative inhibition rate (%) In vivo therapy ([2]; treatment dose 100 μg/mL): 0%
Relative inhibition rate (%) In vivo therapy ([2]; treatment dose 500 μg/mL): 0%
Bactericidal activity (%) Sclerotinia scleotiorum (Sclerotinia scleotiorum): 80.0%
Bactericidal activity (%) Fusarium fujikuroi (Fusarium fujikuroi): 50.0%
Bactericidal activity (%) Fusarium graminearumt (Fusarium graminearumt; 50 mg/kg): 78.6%
Relative inhibition rate (%) In vivo protection ([3]; treatment dose 100 μg/mL): 0%
Relative inhibition rate (%) In vivo protection ([3]; treatment dose 500 μg/mL): 14.4%
Bactericidal activity (%) Botrytis cinerea (Botrytis cinerea): 54.6%
Bactericidal activity (%) Cercospora arachidicola (Cercospora arachidicola): 71.4%
Armyworm Mortality (%) (armyworms): 70%
Relative inhibition rate (%) In vitro activity ([4]; treatment dose 100 μg/mL): 0%
Relative inhibition rate (%) In vitro activity ([4]; treatment dose 500 μg/mL): 0%
activity against armyworms, cotton bollworms and corn borers (in words) [5]: broad-spectrum activity
Bactericidal activity (%) Macrophoma kawatsukai (Macrophoma kawatsukai): 76.5%
Bactericidal activity (%) Alternaria solani (Alternaria solani): 66.7%
Cotton bollworm Mortality (%) (cotton bollworms; concentration 600 mg/kg): 15%
Corn borer Mortality (%) (corn borers [6]): 65%
Bactericidal activity (%) Bipolaria maydis (Bipolaria maydis; 50 mg/kg): 79.0%
Bactericidal activity (%) Rhizoctonia solani (Rhizoctonia solani): 42.9%
Bactericidal activity (%) Cucumber fusarium wilt (cucumber fusarium wilt): 52.4%
Bactericidal activity (%) Colletotrichum orbiculare [7]: 71.4%

C[C@@H]1N[C@H](C(=O)NN)Cc2c1[nH]c1ccccc21 [Ib-15, (1S, 3S)-1-methyl-2,3,4,9-tetrahydropyridino [3,4-b] indol-3-formylhydrazine]
inhibition at 100 µg/mL ([1]; Tobacco mosaic virus, treatment dose 100 μg/mL, read-out: Relative inhibition rate (%) In vivo inactivation): 16.5%
inhibition at 500 µg/mL ([1]; Tobacco mosaic virus, treatment dose 500 μg/mL, read-out: Relative inhibition rate (%) In vivo inactivation): 46%
inhibition of growth at 50 mg/kg (Phytophthora capsici; Phytophthora capsici, 96 h): 51.5%
mortality at 10 mg/kg (mosquito larvae; Culex pipiens, 24 h, read-out: Mosquito larvae Mortality (%)): 40%
inhibition of growth at 50 mg/kg (potato late blight; Phytophthora infestans, 96 h, read-out: Bactericidal activity (%) potato late blight): 26.1%
inhibition of growth at 50 mg/kg (Rhizoctonia cereali; Rhizoctonia, 96 h): 54.1%
inhibition at 100 µg/mL ([2]; Tobacco mosaic virus, treatment dose 100 μg/mL, read-out: Relative inhibition rate (%) In vivo therapy): 20.3%
inhibition at 500 µg/mL ([2]; Tobacco mosaic virus, treatment dose 500 μg/mL, read-out: Relative inhibition rate (%) In vivo therapy): 48.2%
mortality at 600 mg/kg (corn borers [8]): 30%
inhibition of growth at 50 mg/kg (Sclerotinia scleotiorum; Sclerotinia, 96 h): 30.8%
inhibition of growth at 50 mg/kg (Fusarium fujikuroi; Fusarium fujikuroi, 96 h): 29.4%
inhibition of growth at 50 mg/kg (Fusarium graminearumt; Fusarium, 96 h, read-out: Bactericidal activity (%) Fusarium graminearumt): 38.5%
inhibition at 100 µg/mL ([3]; Tobacco mosaic virus, treatment dose 100 μg/mL, read-out: Relative inhibition rate (%) In vivo protection): 23.4%
inhibition at 500 µg/mL ([3]; Tobacco mosaic virus, treatment dose 500 μg/mL, read-out: Relative inhibition rate (%) In vivo protection): 49.6%
inhibition of growth at 50 mg/kg (Botrytis cinerea; Botrytis cinerea, 96 h): 27.8%
inhibition of growth at 50 mg/kg (Cercospora arachidicola; Mycosphaerella arachidis, 96 h): 18.2%
anti-TMV activity compared with ningnanmycin [9]: equivalent to the activity of commercial variety ningnanmycin
Armyworm Mortality (%) (armyworms): 20%
inhibition at 100 µg/mL ([4]; Tobacco mosaic virus, treatment dose 100 μg/mL, read-out: Relative inhibition rate (%) In vitro activity): 21.4%
inhibition at 500 µg/mL ([4]; Tobacco mosaic virus, treatment dose 500 μg/mL, read-out: Relative inhibition rate (%) In vitro activity): 50%
inhibition at 50 mg/kg (Macrophoma kawatsukai): 39.4%
inhibition of growth at 50 mg/kg (Alternaria solani; Alternaria solani, 96 h): 9.5%
mortality at 600 mg/kg (cotton bollworms; Helicoverpa armigera, in Gossypium hirsutum, read-out: Cotton bollworm Mortality (%)): 20%
inhibition at 50 mg/kg (Bipolaria maydis; read-out: Bactericidal activity (%) Bipolaria maydis): 24%
inhibition of growth at 50 mg/kg (Rhizoctonia solani; Rhizoctonia solani, 96 h): 4.2%
inhibition of growth at 50 mg/kg (cucumber fusarium wilt; Fusarium, 96 h): 13.6%
inhibition of growth at 50 mg/kg ([7]; Colletotrichum orbiculare, 96 h): 24%
